Reference: PMC10597491 (PLOS ONE, 2023)
Bridge positions count the residues as written; N and C are the ends. Ends that are not written are not given here.

Experiments:
human IL-7Rα ECD = target: T1, human IL-7Rα ECD (Homo sapiens, UniProt P16871); test: Competition binding ELISA, human IL-7Rα ECD; conditions: immobilized IL-7Rα-(His)6 ECD; tracer biotinylated MDK1248 pre-complexed with Neutravidin-HRP; 4°C; valency-sensitive format
T1 construct: IL-7Rα(aa 21–236)-His6, Sino Biological Cat# 10975-H08H; His6 (C); purchased Sino Biological 10975-H08H
T1 sequence (P16871 21-236): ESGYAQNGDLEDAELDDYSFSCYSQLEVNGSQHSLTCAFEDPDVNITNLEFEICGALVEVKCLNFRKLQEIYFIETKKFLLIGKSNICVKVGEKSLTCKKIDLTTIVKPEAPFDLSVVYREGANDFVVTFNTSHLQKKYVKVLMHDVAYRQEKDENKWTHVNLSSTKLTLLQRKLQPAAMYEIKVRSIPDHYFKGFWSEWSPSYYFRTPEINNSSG
Source text: (§1) (A, B) Determination of IC50 values in a competition ELISA for compound binding to human and cyno IL-7Rα and γc. The assay format is IL-7Rα-(His)6-tagged ECD or Fc-γc ECD immobilized on 96-well plates. Tracers are C-terminal biotinylated forms of the reference IL-7Rα and γc peptide ligands, each pre-complexed with Neutravidin-HRP (NA-HRP). (C, D) Label-free measurement of the equilibrium dissociation constant (KD) for peptide binding to IL-7Rα and γc extracellular domains with peptides was performed by biolayer interferometry as detailed in methods. Red lines depict 1:1 binding fit from Gator™ software. Blue lines represent individual BLI sensogram data taken every 0.1 seconds.
(§2) Binding was determined using a competition binding ELISA. Microtiter plates (Immulon 4HBX flat bottom 96-well) were coated with 50 μL of […] human ECDs: IL-7Rα(aa 21–236)-His6, Sino Biological Cat# 10975-H08H; cynomolgus IL-7Rα(aa 21–235)-His6, Sino Biological Cat# 90332-C08H; human IL-2Rα(aa 23–254)-Fc, Acro Cat# ILG-H5256; cynomolgus IL-2Rα(aa 23–254)-Fc, made in-house, in PBS overnight at 4°C. […] Plates were washed with cold wash buffer, and bound tracer was detected using TMB One Component HRP substrate and Stop Solution (Surmodics Cat# TMBW-1000-01 and LSTP-0100-01). Absorbance at 450 nm was read using Agilent BioTek Synergy HTX Multimode Reader.

cynomolgus IL-7Rα = target: T2, cynomolgus IL-7Rα (Macaca fascicularis, UniProt Q38IC7); test: Competition binding ELISA, cynomolgus IL-7Rα ECD; conditions: immobilized cynomolgus IL-7Rα-His6 ECD; biotinylated peptide/NA-HRP tracer; read-out: Competition ELISA IC50, IL-7Rα Cyno
T2 construct: cynomolgus IL-7Rα(aa 21–235)-His6, Sino Biological Cat# 90332-C08H; His6 (C); purchased Sino Biological 90332-C08H
T2 sequence (Q38IC7 21-235): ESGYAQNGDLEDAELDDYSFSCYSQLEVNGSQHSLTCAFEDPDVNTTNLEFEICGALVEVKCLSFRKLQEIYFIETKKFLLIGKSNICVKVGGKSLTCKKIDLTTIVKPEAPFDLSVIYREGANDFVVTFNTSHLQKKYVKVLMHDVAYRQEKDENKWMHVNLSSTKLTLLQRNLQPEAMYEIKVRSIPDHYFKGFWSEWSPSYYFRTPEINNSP
Source text: as §1, §2

[1] = Plasma stability in vitro, cynomolgus plasma; assay type: in vitro ADME; set-up: dose or concentration left out as unconfirmed; conditions: cynomolgus monkey, 37°C, incubated in duplicate, intact peptide by LC/MS/MS, read-out: t1/2 in cynomolgus plasma (converted)
Source text: Affinity maturation of these initial families produced ligands with improved affinities; and combinations of these ligands (one each for IL-7Rα and γc) were joined into heterodimers in a variety of orientations (i.e., joined by N-termini, C-termini, or N-to-C termini), with several connection chemistries, for testing as IL-7R agonists in cell-based assays. The lead peptide agonist for detailed characterization, as described here, is a fusion of peptides MDK1248 and MDK1188, joined with a short intervening linker to form the single-chain peptide MDK1472. The peptides were analyzed for sequence similarity to IL-7, and none was found.
Supplementary file pone.0286834.s001.pptx: S1 Fig Plasma stability of MDK 1472 in vitro. […] MDK1472 or control peptide YGGFL incubated in duplicate in human or cynomolgus plasma at 37°C. At indicated time points, compounds were isolated from the plasma and the quantity of intact peptides measured by LC/MS/MS (Study performed by Quintara Discovery, Hayward, CA). (PPTX) Click here for additional data file.

human PBMCs = test: pSTAT5 flow cytometry in human PBMC subsets; assay type: cell-based
Source text: Frozen PBMCs from 5 healthy human donors (A, B) and cynomolgus monkey (C) were rested (A, C) or activated with anti-CD3/CD28 (B). Cells were stained for viability, followed by cell surface antibody staining on ice. […] After washing, cells were fixed, permeabilized, stained with anti-pSTAT5 antibody, and analyzed immediately by flow cytometry. The mean fluorescence intensity (MFI) of pSTAT5 detection was shown as mean ± SEM. […] Flow cytometry gating data shown in S2 Fig.
To detect phopho-STAT5 in immune subsets of PBMCs by flow cytometry, frozen human and cynomolgus macaques PBMCs (Stemcell Technologies, Cat# 70025.2 and iQ Biosciences, Cat# IQB-MnPB102, respectively) from 5 different healthy donors were thawed and rested overnight in T-cell media (CTS™ OpTmizer™ T-Cell Expansion SFM, ThermoFisher Scientific Cat# A1048501) at 37°C. Cells were stained with a viability dye for 30 min at 37°C followed by surface marker antibodies for 30 min on ice (S3 Table), then treated with serially diluted test compounds in the medium for 30 min. […] Antibody-stained cells were analyzed immediately by flow cytometry using the Novocyte Advanteon instrument (Agilent), and the data were analyzed using FlowJo software. Fluorescence minus one (FMO) controls were used to draw gates. […]

IC50 (human IL-7Rα ECD) | IC50 (cynomolgus IL-7Rα) | half-life [1] | Substance | pSTAT5 response of NK cells (human PBMCs)
340 nM | 190 nM | 104 h | Ac-GWGIPWCTLDPGSLQCAWLGKHGGGGSGGVVCQDWEGVELCWQGG (disulfide 7-16, 32-41) [MDK1472] | –
– | – | – | IL-7: human IL-7 cytokine (Peprotech) | no pSTAT5 response
